According to ChEMBL document CHEMBL1201862, “PubChem BioAssay data set” (2004):
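Step 1: Grow cells in 96-well plates. Step 2: Expose to compound for 48 hours at 5 concentrations. Step 3: Interpolate endpoints linearly; if unreached, use highest concentration. GI50 = concentration required for 50% inhibition of growth.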 Calls of active or inactive are those of the source. Cut-off read from the data, not from the text of the source: active = GI50 up to about 1.1 µM and inactive = higher.

What was measured:
Assay in all cases: DTP human tumour cell line panel, 48 h
OVCAR-5 = tested on: OVCAR-5
IGROV-1 = tested on: IGROV-1
NCI-H226 = tested on: NCI-H226
COLO 205 = tested on: COLO 205
UACC-62 = tested on: UACC-62
M14 = tested on: M14
CCRF-CEM = tested on: CCRF-CEM
SW-620 = tested on: SW-620
NCI-H23 = tested on: NCI-H23
NCI-H522 = tested on: NCI-H522
TK-10 = tested on: TK-10
HL-60 = tested on: HL-60
ACHN = tested on: ACHN
HCT-116 = tested on: HCT-116
SN12C = tested on: SN12C

Measured: GI50

CNC(=O)CN(CC(N)=O)C(N)=O
inactive: OVCAR-5 > 100 µM | IGROV-1 > 100 µM | NCI-H226 > 100 µM | COLO 205 > 100 µM | UACC-62 > 100 µM | M14 > 100 µM | CCRF-CEM > 100 µM | SW-620 > 100 µM | NCI-H23 > 100 µM | NCI-H522 > 100 µM | TK-10 > 100 µM | HL-60 > 100 µM | ACHN > 100 µM

CCOC(=O)C12CN(C34CC5CC(CC(C5)C3)C4)CC(C(=O)OCC)(C1=O)C(c1ccccc1)OC2c1ccccc1 (centres undefined)
inactive: HCT-116 > 10 µM | OVCAR-5 > 100 µM | IGROV-1 > 100 µM | NCI-H226 89.7 µM | COLO 205 > 100 µM | UACC-62 > 100 µM | SN12C > 10 µM | M14 > 100 µM | CCRF-CEM 44.3 µM | SW-620 > 100 µM | NCI-H23 47.4 µM | TK-10 > 100 µM | HL-60 9.25 µM | ACHN > 100 µM

CCCCN(CCCC)C(=Nc1ccccc1)N(CCCC)CCCC
inactive: HCT-116 1.67 µM | OVCAR-5 5.78 µM | IGROV-1 3.15 µM | COLO 205 2.77 µM | CCRF-CEM 3.89 µM | SW-620 3.54 µM | NCI-H23 2.19 µM | NCI-H522 2.17 µM | TK-10 10.1 µM | HL-60 1.79 µM | ACHN 3.55 µM

CC(C)OCN/C(N)=N\C#N
inactive: HCT-116 > 100 µM | OVCAR-5 > 100 µM | IGROV-1 > 100 µM | NCI-H226 > 100 µM | COLO 205 29.1 µM | UACC-62 > 100 µM | SN12C > 100 µM | M14 > 100 µM | SW-620 17 µM | NCI-H23 > 100 µM | NCI-H522 > 100 µM | TK-10 > 100 µM | HL-60 > 100 µM | ACHN > 100 µM

Nc1n/c(=N\c2ccccc2)ss1
inactive: HCT-116 > 100 µM | OVCAR-5 > 100 µM | IGROV-1 > 100 µM | NCI-H226 > 100 µM | COLO 205 > 100 µM | UACC-62 > 100 µM | SN12C > 100 µM | M14 > 100 µM | SW-620 > 100 µM | NCI-H23 > 100 µM | NCI-H522 > 100 µM | TK-10 > 100 µM | HL-60 19.9 µM | ACHN > 100 µM

O=C(c1ccccc1)C1S(=O)(=O)OCCOS1(=O)=O
inactive: HCT-116 > 100 µM | IGROV-1 > 100 µM | COLO 205 > 100 µM | UACC-62 > 100 µM | SN12C > 100 µM | M14 > 100 µM | CCRF-CEM > 100 µM | SW-620 > 100 µM | NCI-H23 > 100 µM | NCI-H522 > 100 µM | TK-10 > 100 µM | HL-60 > 100 µM

Cc1ccc(NC(=O)OCC(COc2ccc(Cl)cc2Cl)OC(=O)Nc2ccc(C)cc2)cc1 (centres undefined)
inactive: HCT-116 > 100 µM | OVCAR-5 > 100 µM | IGROV-1 > 100 µM | NCI-H226 46.3 µM | COLO 205 > 100 µM | UACC-62 > 100 µM | SN12C > 100 µM | M14 > 100 µM | SW-620 > 100 µM | NCI-H23 > 100 µM | ACHN > 100 µM

COc1ccccc1NC(=O)CC(=O)n1nc(C)c(/N=N/c2ccccc2C(=O)O)c1C
inactive: HCT-116 > 100 µM | OVCAR-5 > 100 µM | IGROV-1 > 100 µM | COLO 205 > 100 µM | UACC-62 59.7 µM | SN12C > 100 µM | M14 > 100 µM | CCRF-CEM > 100 µM | SW-620 > 100 µM | NCI-H23 88.9 µM | NCI-H522 43.9 µM | TK-10 > 100 µM | HL-60 > 100 µM

Cc1ccc(/C=N/NS(=O)(=O)c2ccccc2)cc1C
inactive: HCT-116 76 µM | OVCAR-5 > 100 µM | IGROV-1 51.5 µM | NCI-H226 > 100 µM | COLO 205 > 100 µM | UACC-62 98.9 µM | SN12C > 100 µM | M14 > 100 µM | CCRF-CEM > 100 µM | SW-620 > 100 µM | NCI-H23 > 100 µM | TK-10 > 100 µM | HL-60 > 100 µM | ACHN > 100 µM

CC(=O)OCCC(O[Si](c1ccccc1)(c1ccccc1)C(C)(C)C)C(C)(C)O (centres undefined)
inactive: HCT-116 17.3 µM | OVCAR-5 > 100 µM | IGROV-1 36.3 µM | NCI-H226 19.5 µM | COLO 205 15.8 µM | UACC-62 53.8 µM | SN12C 18.3 µM | M14 39 µM | CCRF-CEM 24.6 µM | SW-620 54.8 µM | NCI-H23 24.7 µM | NCI-H522 20 µM | TK-10 34.4 µM | ACHN 29.4 µM

O=C1C2C=CC(n3[nH]c(=O)n(Cc4ccccc4)c3=O)CC2C(=O)N1c1ccc(Br)cc1 (centres undefined)
inactive: HCT-116 > 100 µM | OVCAR-5 > 100 µM | IGROV-1 > 100 µM | NCI-H226 > 100 µM | COLO 205 > 100 µM | UACC-62 > 100 µM | SN12C > 100 µM | M14 > 100 µM | CCRF-CEM > 100 µM | SW-620 > 100 µM | NCI-H23 > 100 µM | NCI-H522 > 100 µM | TK-10 > 100 µM | HL-60 > 100 µM | ACHN > 100 µM

O=C(CC1(O)C(=O)Nc2ccccc21)c1ccc(Cl)cc1Cl (centres undefined)
inactive: HCT-116 > 100 µM | OVCAR-5 > 100 µM | IGROV-1 > 100 µM | NCI-H226 71.6 µM | COLO 205 > 100 µM | UACC-62 > 100 µM | SN12C > 100 µM | M14 > 100 µM | SW-620 > 100 µM | NCI-H23 > 100 µM | NCI-H522 > 100 µM | TK-10 > 100 µM | HL-60 > 100 µM | ACHN > 100 µM

COC(=O)c1nc(NC#N)nc(O)c1C
inactive: HCT-116 > 61.1 µM | OVCAR-5 > 100 µM | IGROV-1 > 72.9 µM | COLO 205 > 100 µM | UACC-62 > 61.1 µM | SN12C > 100 µM | M14 > 100 µM | CCRF-CEM 78 µM | SW-620 > 100 µM | NCI-H23 > 78.7 µM | NCI-H522 > 80.4 µM | TK-10 > 100 µM | HL-60 > 100 µM | ACHN > 73.6 µM

N#CC(C(=O)CCC(=O)Nc1ccc(Cl)c(Cl)c1)c1ccc(Cl)cc1 (centres undefined)
inactive: HCT-116 > 100 µM | OVCAR-5 23.9 µM | IGROV-1 80 µM | NCI-H226 > 100 µM | UACC-62 11.6 µM | SN12C > 100 µM | M14 51.4 µM | SW-620 > 100 µM | NCI-H23 > 100 µM | TK-10 > 100 µM | HL-60 83.9 µM | ACHN 17.4 µM

CCOc1ccc(NC(=O)C2=C(C)NC(C)=C(C(=O)Nc3ccc(OCC)cc3)C2c2ccc([N+](=O)[O-])cc2)cc1
inactive: OVCAR-5 31.8 µM | IGROV-1 49 µM | NCI-H226 26.8 µM | COLO 205 17.8 µM | SN12C 42.9 µM | M14 23.7 µM | CCRF-CEM 13.3 µM | SW-620 22.3 µM | NCI-H23 28.2 µM | NCI-H522 22.6 µM | TK-10 17.9 µM | HL-60 18.3 µM | ACHN 21.1 µM

O=C(Nc1ccccc1-c1nn(C(=S)Nc2ccccc2)c(=S)n(C(=S)Nc2ccccc2)c1=O)C(F)(F)F
inactive: HCT-116 16.6 µM | OVCAR-5 49.9 µM | IGROV-1 21.5 µM | NCI-H226 17.2 µM | COLO 205 17.5 µM | UACC-62 17.3 µM | SN12C 26.4 µM | M14 20.4 µM | CCRF-CEM 13.3 µM | SW-620 23.9 µM | NCI-H23 15.5 µM | NCI-H522 13.6 µM | TK-10 35.3 µM | HL-60 20.9 µM | ACHN 24.4 µM

O=c1[nH]c(=O)n(C2OC(CO)C(O)C2O)cc1OCC(F)(F)F (centres undefined)
inactive: HCT-116 > 100 µM | OVCAR-5 > 100 µM | IGROV-1 > 100 µM | NCI-H226 > 100 µM | COLO 205 > 100 µM | UACC-62 > 100 µM | SN12C > 100 µM | M14 > 100 µM | CCRF-CEM > 100 µM | SW-620 > 100 µM | NCI-H23 > 100 µM | NCI-H522 > 100 µM | TK-10 > 100 µM | HL-60 > 100 µM | ACHN > 100 µM

C[C@@H](NC1CCCC[C@@H]1O)c1ccccc1 (some centres undefined)
inactive: HCT-116 > 100 µM | OVCAR-5 > 100 µM | IGROV-1 > 100 µM | NCI-H226 > 100 µM | COLO 205 > 100 µM | UACC-62 > 100 µM | SN12C > 100 µM | M14 > 100 µM | CCRF-CEM > 100 µM | SW-620 > 100 µM | TK-10 > 100 µM | HL-60 > 100 µM | ACHN > 100 µM

CC/C=C/c1cc2cc[nH]c2c2c1C(C)C[C@@H]2C (some centres undefined)
inactive: HCT-116 15.7 µM | IGROV-1 40.4 µM | NCI-H226 15.1 µM | COLO 205 18.2 µM | UACC-62 17.8 µM | SN12C 18.9 µM | M14 28.1 µM | CCRF-CEM 23.7 µM | SW-620 31.9 µM | NCI-H23 21.4 µM | NCI-H522 18.1 µM | TK-10 53.6 µM | HL-60 26.7 µM | ACHN 73.5 µM

CC(=O)OC(C[C@H](C)[C@@H]1CC[C@]2(C)C3=CCC4C(C)(C)C(=O)CC[C@]4(C)C3CCC12C)C1OC1(C)C (some centres undefined)
inactive: HCT-116 18.2 µM | OVCAR-5 16.7 µM | IGROV-1 21.9 µM | NCI-H226 13.6 µM | COLO 205 19.9 µM | UACC-62 23.4 µM | M14 20.1 µM | CCRF-CEM 15.9 µM | SW-620 34.1 µM | NCI-H23 20.5 µM | NCI-H522 12.9 µM | TK-10 19.1 µM | HL-60 7.29 µM | ACHN 11.5 µM
